Test results as given in paper PMC5920614 (ACS Central Science, 2018).
Ends that are not written are not given here.

How the values were obtained:
[1] = cited from earlier work
[2] = 31P NMR of peptide/lipid II mixtures; assay type: binding; details: dimethyl sulfoxide

Question: Which results are given for “ITSISLCTPGC (also: bicyclic or more (positions not given here)) [nisin A]”?
Answer: pyrophosphate 31P peak shift upon nisin binding (in words) ([1]; 31P NMR, dimethyl sulfoxide): the pyrophosphate peaks shift upfield upon nisin binding; binding to lipid II (in words) [1]: binds to the small molecular weight metabolite lipid II; direction of shift of the new 31P NMR resonances (in words) ([2]; lipid II mixed with peptide): both new resonances arising in the nisin/lipid II spectra were shifted upfield; binding to lipid II by 31P NMR (in words) ([2]; two new 31P resonances): both compounds bind to lipid II
